Results from PubChem BioAssay AID179 (DTP/NCI, 2004).
Where “and” joins values, the source holds several entries; their conditions need not be identical. Equal entries are not always repeated. Calls of active or inactive are those of the source.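 Rule for the calls: active = compounds giving half or more protection of infected cells from virus-caused growth loss, again on retest; inactive = the rest.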 Where a SMILES comes first, the peptide text is derived from it. [ ]: non-standard residue; d: D form. The star is where a group is joined. ξ: configuration not given here. Dnp = O=[N+]([O-])c1ccc(*)c([N+](=O)[O-])c1; Hpg = N[CH](C(=O)O)c1ccc(O)cc1; Bz = O=C(c1ccccc1)*; ξC = NC(CS)C(=O)O

System: CEM cells HIV-1 protection, formazan growth assay
Test: NCI AIDS Antiviral Assay
Conditions: for IC50: measured here: growth of uninfected CEM cells
Method in brief: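 Category rules: moderately active means at least 50% protection on retest, and confirmed active means 100% protection reproducibly. The underlying data came from a formazan growth assay in HIV-1-infected CEM cells.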

Compound | EC50 | IC50 | outcome
Cn1c(=O)c2sc3c4sc5c(=O)n(C)c6ccccc6c5c4sc3c2c2ccccc21 | > 200 µM | > 200 µM | –
COc1ccccc1NC(=O)C1=C(C)NC(C)=C(C(=O)Nc2ccccc2OC)C1c1cccc2ccccc12 | > 9.77 µM | > 9.77 µM | –
CCOc1ccccc1NC(=O)C(=O)CC(=O)c1sc(Nc2nnc(-c3ccc(Cl)c(Cl)c3)o2)nc1C | > 33.9 µM | > 33.9 µM | –
CS(=O)(=O)OCCN(CCOS(C)(=O)=O)c1ccc(C=Nc2ccc(-c3csc(COc4ccccc4)n3)cc2)cc1 | > 200 µM | 0.457 µM | –
Nc1ccc(C2=Nc3ccccc3SC(c3ccccc3O)C2)cc1 (stereo not drawn) | > 11 µM | > 11 µM | –
CONc1ncnc2c1ncn2C1OC(CO)CC1F (stereo not drawn) | > 178 µM | > 178 µM | –
C=C(C)C1C/C=C(/C)CCCC2(CCC3=C(CC(C(=C)C)C/C=C(/C)CCC3)O2)C(=O)C1 (stereo not drawn) | > 30.9 µM | > 30.9 µM | –
O=C(NC(=O)C(Cc1ccccc1)c1ccccc1)C(Cc1ccccc1)c1ccccc1 (stereo not drawn) | > 12 µM | > 12 µM | –
COC1O[C@H]2CCN(C(=O)OCc3ccccc3)[C@H]2[C@H]1OCc1ccccc1 (stereo partly drawn) | > 35.5 µM | > 35.5 µM | –
COc1ncc(/C=C2\OC(=O)c3ccccc32)c(OC)n1 | > 200 µM | > 200 µM | –
Cc1cc(C)nc(NS(=O)(=O)c2ccc(Nc3c4ccccc4nc4c(C(=O)NCCO)cccc34)cc2)n1 | > 200 µM | 7.76 µM | –
CSC1=C(C#N)C(=S)N=C(N)C1C(=O)Nc1ccc(C)cc1 (stereo not drawn) | > 200 µM | > 100 µM | –
COc1cc2c(cc1OC)-c1c(cc(OC)c(OC)c1OC)C2=O | – | – | inactive
C/C(O)=C(\C=N\C(N)=S)C(=O)Nc1ccccc1 | > 200 µM | > 200 µM | –
COC(=O)C1ON(c2ccccc2)C2c3ccccc3-c3ccccc3C12 (stereo not drawn) | > 5.62 µM | > 5.62 µM | –
CC1=NNC(=O)C1N=Nc1c(C)n(C)n(-c2ccccc2)c1=O (stereo not drawn) | > 200 µM | 16.6 µM | –
CC(=O)NS(=O)(=O)c1ccc(NC(=O)COC(=O)c2cccc3c(=O)c4ccccc4[nH]c23)cc1 | > 363 µM | 245 µM | –
O=S(=O)(/C=C/c1ccc(Cl)cc1Cl)Cc1ccccc1CS(=O)(=O)/C=C/c1ccc(Cl)cc1Cl | > 12.6 µM | > 12.6 µM | –
O=C(O)C1c2ccccc2C(C(=O)O)c2ccccc21 (stereo not drawn) | – | – | inactive
COc1ccc(N2C(=O)C3c4[nH]c5ccc(F)cc5c4C4CCC(c5ccccc5)CC4C3C2=O)cc1 (stereo not drawn) | > 200 µM | 36.3 µM | –
N#CCCN(c1ccc(/C=C2\N=C(Cc3ccccc3)OC2=O)cc1)S(=O)(=O)c1ccccc1 | 240 µM | 275 µM | –

Compound | EC50 | IC50 | outcome
COc1ccc2[nH]c(C(O)(Cc3cccnc3)Cc3cccnc3)cc2c1 | 191 µM | > 200 µM | –
CCOC(=O)NC(OC)(C(F)(F)F)C(F)(F)F | > 200 µM | > 200 µM | –
C[N+](C)(C)CC1CCc2ccccc2C1=O (stereo not drawn) | > 724 µM | 1.32 µM | –
COC(=O)C1=CCC2c3[nH]c4ccccc4c3CCN2C1 (stereo not drawn) | > 91.2 µM | > 91.2 µM | –
CCOC(=O)CC[C@H](NC(=O)c1ccc(CNc2nc3cc(C(F)(F)F)ccc3nc2C(=O)OCC)cc1)C(=O)OCC | > 100 µM | > 100 µM | –
c1ccc([P+](Cc2ccccc2C[P+](c2ccccc2)(c2ccccc2)c2ccccc2)(c2ccccc2)c2ccccc2)cc1 | > 200 µM | 129 µM and 107 µM | –
CSc1c(C#N)c(=C(C#N)C#N)nc(C)/c1=C(\C)O | > 100 µM | > 100 µM | –
CCCCC(C(=O)CCC(=O)Nc1ccc(Cl)c(Cl)c1)C(=O)C(C)C (stereo not drawn) | > 324 µM | 275 µM | –
O=S(=O)(N1CCCCN(S(=O)(=O)C(F)(F)F)CCCN(S(=O)(=O)C(F)(F)F)CCCN(S(=O)(=O)C(F)(F)F)CCCCN(S(=O)(=O)C(F)(F)F)CCCN(S(=O)(=O)C(F)(F)F)CCC1)C(F)(F)F | > 200 µM | > 200 µM | –
Cc1c[nH]c(C(=O)O)c1-c1ccc2c(-c3ccccc3)nc3ccccc3n12 | > 200 µM | 33.1 µM | –
COc1cc(Nc2c3ccccc3nc3ccccc23)ccc1NS(C)(=O)=O | > 200 µM | 2.4 µM | –
N=c1nnc2ccc(Cl)cc2n1O | > 200 µM | 33.1 µM | –
Nc1c2ccccc2nc2ccccc12 | > 200 µM | 2.19 µM | –
C=C(COC(=O)C(C)C)[C@H]1Oc2ccc(C(C)=O)cc2[C@@H]1OC(=O)C(C)C | > 200 µM | > 200 µM | –
CC1(C)OCC2OC3OC(C)(C)OC3C(OS(C)(=O)=O)C2O1 (stereo not drawn) | > 200 µM | > 200 µM | –
CSc1nc(NC2OC(COC(C)=O)C(OC(C)=O)C(OC(C)=O)C2OC(C)=O)c2c(n1)OCC2=O (stereo not drawn) | > 67.6 µM | > 67.6 µM | –
CCN(c1ccccc1)[C@H]1C(=O)N(c2ccc([N+](=O)[O-])cc2)[C@H]1c1ccc(OC)cc1 | – | – | inactive
Cc1ccc(S(=O)(=O)c2[nH]cc(/C(=C\C3CCCCC3)[N+](=O)[O-])c2C2CCCCC2)cc1 | > 2 µM | 1.15 µM | –
NC(=N\N=C/c1ccc(Cl)cc1)/C(N)=N\N=C/c1ccc(Cl)cc1 | – | – | inactive
CCCCCCCCOC1N(C2CC(N=[N+]=[N-])C(CO)O2)C(=O)NC(=O)[C@]1(C)Cl (stereo partly drawn) | > 200 µM | 37.2 µM | –
CCOc1cc2c(cc1O)/C(=N/NS(=O)(=O)c1ccc(C)cc1)C[C@@H]1[C@@H]2CC[C@]2(C)[C@@H](O)CC[C@@H]12 | > 200 µM | 0.229 µM | –

Compound | EC50 | IC50 | outcome
CC1=C2CC[C@]2(C)[C@]23OCC(C)(CC2C1=O)C3O (stereo partly drawn) | – | – | inactive
O=C(Nc1ccc(C2=NCCN2)cc1)c1ccc(C(=O)Nc2ccc(C3=NCCN3)cc2)c(Cl)c1 | > 200 µM | 49 µM | –
O=C(O)/C(=C(/c1ccccc1)c1ccc(Cl)cc1)c1ccccc1 | > 107 µM | 89.1 µM | –
CN1CCN(C(=S)N(C)C(=O)c2ccc(Cl)cc2)CC1 | > 794 µM | 389 µM | –
CCOC(=O)CCCCCNc1nc(Cl)nc(Cl)n1 | > 200 µM | > 200 µM | –
O=C(NNC(=O)c1cc2ccccc2[nH]1)c1cc2ccccc2[nH]1 | > 200 µM | > 200 µM | –
Cc1ccc2c(c1)C(C1Cc3cccc(C)c3C1=O)OC2=O (stereo not drawn) | > 200 µM | > 200 µM | –
CSc1c2c([nH]c(=O)c1C#N)-c1ccccc1CC2 | > 200 µM | 166 µM | –
COc1ccc(C(=O)Cc2nc3nnc(N)n3nc2CC(=O)c2ccc(OC)cc2)cc1 | > 575 µM | > 575 µM | –
CC(C)CC(N)C(=O)NC(C(N)=O)c1ccc(O)cc1 (stereo not drawn) (H-Leu-[Hpg]-NH2; configuration not given here) | > 200 µM | > 200 µM | –
NCCCNCCCCN1CC1 | > 200 µM | 1.17 µM | –
CCOC(=O)/C(O)=C(/C=N\C(=S)Nc1ccccc1Cl)C(=O)OCC | > 200 µM | > 200 µM | –
Cc1cccc2c1Sc1ccccc1C2NC(=O)CCN(C)C (stereo not drawn) | > 550 µM | 31.6 µM | –
CCOc1cc2c(c(OCC)c1O)CC[C@@H]1[C@@H]2CC[C@]2(C)[C@@H](O)CC[C@@H]12 | > 2 µM | 0.776 µM | –
c1ccc(C2OC3(CCC[C@H]4C[C@H]43)O[C@H]2c2ccccc2)cc1 (stereo partly drawn) | – | – | inactive
NNC(=O)C(=O)NN=C(C(Cl)(Cl)CO)C(Cl)(Cl)CO | > 20.4 µM | > 20.4 µM | –
O=C1/C(=C/c2cccc([N+](=O)[O-])c2)Cc2ccccc21 | > 200 µM | > 200 µM | –
N#C/C(=C\c1ccc(-c2ccccc2)cc1)C(=O)c1ccccc1 | > 83.2 µM | 27.5 µM | –
CN(C)c1c(-c2ccc(Cl)cc2)cc(-c2ccccc2)[nH]c1=O | > 20.9 µM | > 20.9 µM | –
CC12c3c4ccc(C=O)c3Oc3ccc(C=O)c(c31)Oc1ccc(C=O)c(c12)O4 | > 25.1 µM | 13.5 µM | –
Cc1cccc(/C=N/NC(=S)NC2CCCCC2)n1 | > 200 µM | 10 µM | –

Compound | EC50 | IC50 | outcome
C=CCCCCO/N=C/c1c2c(O)c3c(O)c(C)c4c(c3c1O)C(=O)C(C)(O/C=C/C(OC)C(C)C(OC(C)=O)C(C)C(O)C(C)C(O)C(C)/C=C/C=C(\C)C(=O)N2)O4 (stereo not drawn) | > 200 µM | 7.41 µM | –
C[C@]12CC[C@@H]3c4cc(Br)c(O)c(Br)c4CC[C@H]3[C@@H]1CC(Br)C2=O (stereo partly drawn) | > 200 µM | 3.47 µM | –
O=C1c2ccccc2C(=O)c2c1c(-c1ccccc1)cc(CCO)c2-c1ccccc1 | – | – | inactive
Cc1cc(N(CCC#N)CCC#N)ccc1N=Nc1ccc(S(N)(=O)=O)cc1 | > 170 µM | > 170 µM | –
O=S(=O)([O-])[O-].[OH3+].[OH3+].[OH3+].[Ru+2].c1ccccc1 | > 79.4 µM | > 79.4 µM | –
S=C(N/N=C\c1ccccn1)N(Cc1ccccn1)Cc1ccccn1 | > 2 µM | 0.955 µM | –
CCOC(=O)c1c(C)n(C)c2c1nnc1ccccc12 | > 200 µM | 129 µM | –
Cc1ccc(S(=O)(=O)N/N=C2\CC3C4C=CC3C2C4)cc1 (stereo not drawn) | > 200 µM | > 200 µM | –
O=c1[nH]cc(SSc2c[nH]c(=O)[nH]c2=O)c(=O)[nH]1 | 138 µM | > 200 µM | –
Cc1cccc(C2NC(=O)N3C(c4cccc(C)c4)NC(=O)N23)c1 (stereo not drawn) | > 200 µM | 38 µM | –
COC(=O)C(CSc1ccc([N+](=O)[O-])cc1[N+](=O)[O-])NC(=O)CNC(=O)c1ccccc1 (stereo not drawn) (Bz-Gly-[ξC](Dnp)-OMe) | > 15.5 µM | > 15.5 µM | –
O=C(CCN1CCCCC1)c1cc2cc([N+](=O)[O-])ccc2oc1=O | > 219 µM | 112 µM | –
CC(C)(C)NC(=O)CCC(=O)O | > 200 µM | 110 µM | –
COc1ccc2c(c1)CC/C2=C\CC1(C)C(=O)CCC1=O | > 200 µM | 107 µM | –
CC1C[C@@H]2C(=O)NC(=O)[C@@H]2c2c1c1ccccc1n2C (stereo partly drawn) | > 331 µM | 214 µM | –
Cc1ccc(NC(=O)CCc2n[nH]c(=S)o2)cc1 | > 5.5 µM | > 5.5 µM | –
CC(O)CCC(=O)c1ccoc1 (stereo not drawn) | > 1480 µM | > 1480 µM | –
C[C@]12CCC(OS(=O)(=O)O)CC1=CCC1C2CC[C@@]2(C)C1CC[C@@H]2C(=O)O (stereo partly drawn) | > 427 µM | 417 µM | –
O=[N+]([O-])/C(C(Cl)=C(Cl)Cl)=C1\Nc2ccccc2O1 | > 200 µM | 97.7 µM | –
CCC1(CC)C(=O)NC(=S)N=C1N | – | – | inactive
